In the series the test system is HSD fed rats. As to the kind of experiment: In vivo efficacy study in high sucrose diet (HSD) steatosis rats. As to conditions: HSD plus 30 mg/kg seven days. The text has this:
In vivo efficacy studies. After 1-week acclimation period, rats were randomly separated into two groups: control group (n=5) and high sucrose group (n=20). The control group was fed with a standard diet while the others consumed high sucrose diet (HSD). Sucrose was purchased from Sigma Chemical Co. (St Louis, MO, USA) and supplied at the dose of 10% in the drink water for two weeks.
After 2 weeks, five rats in the HSD group were randomly sacrificed for conformation of NAFLD model. Then, the remaining rats in the HSD group were separated into three sub-groups (n=5): HSD group, HSD plus BX-912 group and HSD plus JNK-IN-5A group. BX-912 and JNK-IN-5A were dissolved in DMSO and were orally administrated using oral gavage for one week (30 mg/kg/day). The HSD group were treated with vehicle solution only.
At the end of the experiment, rats were sacrificed after being anesthetized. Blood samples were collected from the abdominal aorta and centrifuged at 8000 rpm for 15 min at 4° C. The plasma was separated and stored at −80° C. until further analysis. Other internal organs, including the heart, adipose tissues, liver, kidney, muscle, intestine (duodenum, ileum, jejunum), pancreas, colon and stomach were immediately removed and then snap frozen in liquid nitrogen and stored at −80° C.; the liver was also fixed in 10% formaldehyde for histopathological examination.
Histopathological examination. The liver tissues were fixed in 10% buffered formaldehyde solution. After fixation, the tissues were passed through graded alcohol and xylene series and embedded in paraffin blocks. 5 micrometer thick sections were taken serially from the paraffin blocks. Histopathological changes were evaluated by performing hematoxylin eosin staining on the sections taken. Sections were evaluated according to histopathological findings as none (−), mild (+), moderate (++) and severe (+++).
Immunohistochemical examination. After deparaffinization, the slides were immersed in antigen retrieval solution (pH 6.0) and heated in microwave for 15 min to unmask the antigens. The sections were then dipped in 3% H2O2 for 10 min to block endogenous peroxidase activity. Protein block was dropped onto the sections, washed with PBS for 10 min. Primary antibodies (8-OH-dG, Cat No: sc-66036, Diluent Ratio: 1/100, Santa Cruz) were prepared and applied according to the usage conditions. Expose mouse and rabbit specific HRP/DAB detection IHC kit were used as follows: sections were incubated with goat anti-mouse antibody, then with streptavidin peroxidase, and finally with 3,3′ diamino benzidine+chromogen. Slides were counter stained with hematoxylin. Immunoreactivity in the sections were graded as none (−), mild (+), moderate (++) and severe (+++).

This is an account of results in US20260234159A1, “SMALL MOLECULE TREATMENT OF FATTY LIVER DISEASE AND HCC” (SCANDIEDGE THERAPEUTICS AB, priority 2023, published 2026).

As to `N#Cc1c(NC(=O)c2cccc3ccccc23)sc2c1CCCC2` [JNK-IN-5A, N-(3-cyano-4,5,6,7-tetrahydrobenzo[b]thiophen-2-yl)-1-naphthamide], the “toxic effect on small intestine, large intestine, stomach, heart and muscle tissues” value is listed as “no toxic effect”. Under “HSD 3w severe”, the “degeneration in hepatocytes in liver tissues” value was “mild”, the “degeneration in renal tubule epithelium” value is given as “mild”, the “fattening in the parenchyma cells of pancreas tissues” value is on record as “mild” and the “steatosis in hepatocytes in liver tissues” value is given as “mild”. Further, where the note is “HSD 3w strong”, the “8-OH-dG expression in hepatocytes” value is on record as “significantly decreased”.
